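Assay format: 96-well plates, 48-hour exposure. GI50 is the concentration that inhibits growth by half. TGI denotes the concentration required for complete inhibition of growth.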 Where a SMILES comes first, the peptide text is derived from it. The star is where a group is joined. Boc = CC(C)(C)OC(=O)* Some results are limits rather than exact numbers.

Here are results for 29 molecules from PubChem BioAssay (NCI).

Holding throughout (test): NCI-60 cell line screen, 48 h
In experiment [1] the test system is OVCAR-5 ovarian.
The test system of experiment [2] is CCRF-CEM leukemia.
In experiment [3] the test system is K-562 leukemia.
In experiment [4] the test system is RPMI-8226 leukemia.
The test system of experiment [5] is NCI-H226 lung.
The test system of experiment [6] is PC-3 prostate.
The test system of experiment [7] is SNB-75 CNS.
In experiment [8] the test system is A498 renal.
The subject of experiment [9] is OVCAR-8 ovarian.
The test system of experiment [10] is HS 578T breast.

`COC(=O)C(Cc1c[nH]c2ccccc12)NC(=O)C(Cc1c[nH]c2ccccc12)NC(=O)C(Cc1c[nH]c2ccccc12)NC(=O)C(Cc1c[nH]c2ccccc12)NC(=O)C(Cc1c[nH]c2ccccc12)NC(=O)C(Cc1c[nH]c2ccccc12)NC(=O)C(Cc1c[nH]c2ccccc12)NC(=O)C(Cc1c[nH]c2ccccc12)NC(=O)OC(C)(C)C` (stereo not given) (Boc-WWWWWWWW-OMe; configuration not given here): the TGI is over 100 µM in experiment [1]; 96.2 µM in experiment [2]; over 100 µM in [3]; over 100 µM in experiment [4]; over 100 µM in experiment [5]; over 100 µM in experiment [6]. Moreover, the TGI in experiment [7] was over 100 µM; in experiment [8], 55.6 µM; in experiment [9], over 100 µM.
For the molecule `N/C(=N\N=C\c1ccc2c(c1)OCCO2)NO`, the TGI in experiment [1] was over 40.8 µM; in experiment [2], over 100 µM; in experiment [3], over 72.4 µM; in experiment [4], over 64.4 µM; in experiment [5], 27.5 µM; in experiment [7], over 100 µM. The figures for the TGI in experiment [8] and in experiment [9] were over 100 µM and over 76.6 µM, respectively.
On to `O=C1c2ccc(O)c(O)c2C(=O)c2c(O)ccc(O)c21`, for which the TGI in [1] is 76.5 µM; in [2] it was 56.7 µM; in [3] it was 70.9 µM; in [4], over 100 µM; in experiment [5], 50.5 µM; in [8], 53.8 µM. Further, the TGI in [9] amounted to 80.8 µM.
Turning to `COc1ccc(/C=C2\CCC(C)C3=C2N=c2s/c(=C/c4cccc(Br)c4)c(=O)n2C3c2ccc(OC)c(OC)c2)cc1OC` (stereo not given), the TGI in experiment [1], in experiment [2], in [3], in experiment [4], in [10] and in experiment [6] was over 100 µM in each case. Moreover, the TGI in experiment [8] and in experiment [9] was over 100 µM in each case.
For `N#Cc1c(N)nc(Sc2ccccc2N)c(C#N)c1-c1ccc(Cl)cc1`, the TGI in experiment [1] is over 87.3 µM; in experiment [2], over 100 µM; in experiment [3], over 42 µM; in experiment [4], 28.8 µM; in [5] it was over 100 µM; in experiment [10] it was 32 µM. Moreover, the values for the TGI in experiment [6], in experiment [8] and in experiment [9] were 20.7 µM, 16.9 µM and 41 µM, respectively.
For `O=C1c2ccccc2C(=O)N1CC(O)COc1cccc2ccccc12` (stereo not given), the TGI in experiment [1], in experiment [2], in experiment [3], in experiment [4], in experiment [6] and in [8] was over 100 µM throughout. Also, the TGI in experiment [9] is over 100 µM.
As for `CC(=O)Nc1ccc(C2SCc3nc4ccccc4n32)cc1` (stereo not given), the TGI in experiment [1] is over 100 µM; in experiment [2], over 100 µM; in [3] it was over 100 µM; in experiment [4], over 100 µM; in experiment [10] it was over 95.5 µM; in experiment [6], over 100 µM. For the same molecule, the TGI was over 100 µM in experiment [7], 28.6 µM in experiment [8] and over 100 µM in experiment [9].
In the case of `O=C(NNC(=S)NC1CCCCC1)c1csc(NC(=S)NC2CCCCC2)n1`, the TGI in experiment [1] was 40.1 µM; in experiment [2] it was over 100 µM; in experiment [4] it was 46.7 µM; in experiment [5] it was over 100 µM; in experiment [6], 24.9 µM; in experiment [8], 36.3 µM. Moreover, the TGI in experiment [9] came out at 15 µM.
For the molecule `CN(C)c1nc(Cl)c2c(-c3ccccc3)c(-c3ccccc3)oc2n1`, the TGI in experiment [1] is over 100 µM; in experiment [2] it was over 100 µM; in [3], over 100 µM; in [4] it was 60.8 µM; in [5], over 100 µM; in experiment [10], over 100 µM. Moreover, the TGI in [7], in [8] and in experiment [9] was over 100 µM throughout.
In the case of `Cc1cc(=O)oc2c(CNC(Cc3ccccc3)C(=O)O)c(O)ccc12` (stereo not given), the TGI in experiment [1], in experiment [2], in experiment [3], in [4], in experiment [5] and in experiment [10] was over 100 µM each time. Further, the TGI in experiment [6], in experiment [7] and in experiment [9] was over 100 µM each time.
As to `C(=C\c1ccco1)/c1cccc(/C=C/c2ccco2)n1`, the TGI in experiment [1], in [2], in [3], in [4], in [5] and in experiment [10] was over 50 µM throughout. In addition, the TGI in experiment [7] was 33.1 µM; in [8], over 50 µM; in experiment [9], over 50 µM.
`BrC(c1cccc2ccccc12)c1cccc2ccccc12`: the TGI in experiment [1] is 84.9 µM; in [3], over 100 µM; in [4], over 100 µM; in [5], 33.5 µM; in experiment [6], 54.1 µM; in experiment [7], 29.1 µM. Besides, the TGI in experiment [8] turned out to be 31.4 µM; in experiment [9], 35.1 µM.
`Nc1nc2c3nc(Nc4ccccc4)sc3nc(=O)n2c2sc(Nc3ccccc3)nc12`: the TGI in experiment [2], in experiment [3], in experiment [4], in experiment [5], in experiment [7] and in [8] was over 100 µM throughout. Besides, the TGI in experiment [9] is over 100 µM.
`C=C(C)[C@@H]1CCC2=C[C@H](OC2=O)[C@@]2(C)C[C@@H]2C2=CC(C)=C(O2)[C@H]1O`: the TGI in experiment [1], in experiment [2], in experiment [3], in [5], in [6] and in experiment [7] was over 75 µM in each case. Further, the TGI in [8] and in [9] was over 75 µM throughout.
With `COc1ccc2nc(-c3ccc(O)cc3)sc2c1`, the TGI in experiment [1] is 31.6 µM; in experiment [3] it was over 100 µM; in experiment [4] it was 0.678 µM; in experiment [5], 45.8 µM; in experiment [6] it was 45.2 µM; in experiment [8], 85.7 µM. The TGI in experiment [9] is 45.1 µM.
On to `NC(=S)N/N=C\c1nccc2ccccc12`, for which the GI50 in [1] is 469 nM. Besides, the TGI is over 100 µM in experiment [1]; over 50 µM in [3]; 4.72 µM in experiment [4]; 0.54 µM in [5]; over 100 µM in experiment [10]; over 100 µM in experiment [6]. The TGI came out at 2.39 µM in experiment [8] and 0.925 µM in experiment [9].
On to `CC1(C)CCC[C@]2(C)[C@H]3[C@H](C#N)c4cc(O)c(O)cc4O[C@@]3(C)CC[C@@H]12`, for which the TGI in [1], in experiment [2], in experiment [3], in experiment [4], in experiment [5] and in [10] was over 10 µM each time. Besides, the TGI in experiment [6], in [8] and in experiment [9] was over 10 µM in each case.
Consider `Cc1ccccc1S(=O)(=O)Nn1cnc2ccc(S(=O)(=O)Nc3ccc(Cl)cc3)cc2c1=O`, for which the TGI in [1], in [2], in experiment [3], in experiment [4], in experiment [5] and in experiment [10] was over 100 µM each time. Further, the TGI in experiment [6], in [7] and in [9] was over 100 µM in each case.
Take `O=C1CSC(c2cccc([N+](=O)[O-])c2)N1c1ccc(-n2c(-c3ccccc3)nc3ccccc3c2=O)cc1` (stereo not given): the TGI in experiment [1], in experiment [2], in experiment [3], in experiment [4], in experiment [5] and in [10] was over 100 µM in each case. The TGI in [6], in experiment [8] and in experiment [9] was over 100 µM in each case.
Regarding `Cc1cc(S(=O)(=O)Nc2nc3ccccc3c(=O)n2N)c(S)cc1Cl`, the TGI in experiment [1] is over 100 µM; in experiment [2] it was over 100 µM; in experiment [3], over 100 µM; in [4] it was over 100 µM; in [5], 67.1 µM; in experiment [6], over 100 µM. Besides, the TGI in experiment [7] was 92.7 µM; in [9], over 100 µM. In experiment [7], the GI50 is 13.3 µM.
On to `CC(=O)O[C@H]1C(=O)[C@@]2(C)C(C(OC(=O)c3ccccc3)C3[C@@H](O)C(OC(=O)[C@@H](O)[C@H](NC(=O)c4ccccc4)c4ccc(C(F)(F)F)cc4)C(C)=C1C3(C)C)[C@]1(OC(C)=O)CO[C@@H]1C[C@@H]2O` (stereo not given in full), for which the TGI in experiment [1], in experiment [2], in experiment [3], in experiment [4], in experiment [5] and in experiment [7] was over 25 µM throughout. This molecule also showed a TGI in experiment [9] of over 25 µM.
As to `Oc1ccc(-c2nc3ccc(Cl)cc3s2)cc1`, the TGI in [1] is 33 µM; in [2], 24.4 µM; in experiment [3], over 100 µM; in experiment [4], 47.3 µM; in [5], 41.6 µM; in experiment [6], 37.5 µM. Besides, the TGI was found to be 35.2 µM in experiment [8] and 39 µM in experiment [9].
For the molecule `Cc1cc2c([nH]c3ccccc32)c2c1OC(C)(C)C1C3CC(C)(C)Oc4c(C)cc5c6ccccc6n(c5c43)C21` (stereo not given), the TGI in experiment [1], in experiment [2], in experiment [3], in experiment [4], in experiment [7] and in experiment [8] was over 100 µM throughout. Further, in experiment [9], the TGI was over 100 µM.
For `CCOC(=O)c1ccc(NCC#CCN2CCCCC2)cc1`, the TGI in experiment [1], in [2], in [3], in experiment [4], in experiment [5] and in [10] was over 100 µM throughout. In addition, the TGI in [6] and in experiment [8] was over 100 µM throughout.
In the case of `C=C1CCC([N+](=O)[O-])[C@](C)(N=O)CC[C@@H]2C1CC2(C)C` (stereo not given in full), the TGI in experiment [1] was 36.1 µM; in experiment [2], over 100 µM; in [3], 79.1 µM; in [4] it was over 100 µM; in [5], 30.9 µM; in experiment [10], 39 µM. In addition, the TGI in experiment [6] is over 100 µM; in [7], 45.3 µM; in [9], 48 µM.
Turning to `O=C1Oc2cc(O)cc(/C=C/c3ccc(O)cc3)c2[C@@]12c1c(O)cc(O)cc1OC2c1cccc(O)c1` (stereo not given in full), the TGI in [1] is 92.4 µM; in experiment [2], 56.5 µM; in experiment [3] it was over 100 µM; in experiment [4], 37.1 µM; in experiment [5], 93.2 µM; in experiment [10], 56.6 µM. Moreover, the TGI in experiment [6], in [7] and in [9] was over 100 µM throughout.
For the molecule `Cc1ccc(S(=O)(=O)NNCNC(=O)c2ccccc2)cc1`, the TGI in experiment [1] was over 100 µM; in [2] it was 63.2 µM; in experiment [3], over 100 µM; in experiment [4], over 100 µM; in [5] it was over 100 µM; in experiment [10], over 100 µM. Moreover, the TGI in experiment [6], in [7] and in experiment [9] was over 100 µM each time.
As to `CC(=O)O[C@H]1[C@H](OC(=O)CC(C)(O)CC(=O)O)C[C@]2(C)C3=C(CCC2C1(C)C)[C@]1(C)CC[C@H]([C@H]2CC[C@H](C(C)(C)O)OC2O)[C@@]1(C)[C@@H](O)C3` (stereo not given in full), the TGI in [1] was 31.7 µM; in experiment [2] it was 49.7 µM; in experiment [3], 76.5 µM; in experiment [4], 43.8 µM; in experiment [5], 53.8 µM; in [10], 41.9 µM. Besides, the TGI came to 33.2 µM in experiment [6], 26.4 µM in experiment [8] and 35.4 µM in experiment [9].
As for `CC(=O)C1CC[C@@H]2[C@H](CC[C@]3(C)[C@@H](O)CC[C@@H]23)[C@H]1C(=O)O` (stereo not given in full), the TGI in experiment [1], in experiment [2], in [3], in experiment [4], in experiment [10] and in experiment [6] was over 100 µM in each case. Besides, the TGI in [8] and in experiment [9] was over 100 µM throughout.
